Results: US10865211B2 (ENANTA PHARMACEUTICALS, INC, priority 2018, dated 2020)

Tests used:
2.2.15 cells = assay: Antiviral activity in 2.2.15 cells: reduction of viral product accumulation (qPCR, HBsAg/HBeAg ELISA); type: cell-based, HBV; settings: Hepatitis B virus, 120 h, day 5 post treatment, concentration reducing viral product accumulation in cell lysates or supernatants by 50% relative to no drug controls
Protocol: 2.2.15 cells are passaged upon attaining confluency in DMEM/F12 media in the presence of 10% FBS, Penn/Strep, and 250 ug/mL G418. Novel compounds are 5 fold serially diluted in DMSO and added to 96 well plates containing 35,000 cells/well at a 1:200 dilution so that the final concentration of DMSO is 0.5%. On day 5, post treatment cell lysates and supernatants are harvested for analysis.
Cells are lysed using Agilent Sidestep Lysis buffer, diluted 1:100 and quantified via quantitative real time PCR. Commercially available ELISA kits are used to quantitate the viral proteins HBsAg (Alpco) or HBeAg (US Biological) by following the manufacturer's recommended protocol after diluting samples to match the linear range of their respective assays. Irrespective of readout, compound concentrations that reduce viral product accumulation in the cell lysates or supernatants by 50% relative to no drug controls (EC50) are reported; EC50 ranges are as follows: A<0.1 μM; B 0.1-1 μM; C>1 μM.

[1] = Compound induced cellular toxicity in HepG2 cells (ATPlite); type: cell-based; settings: human, three days, ATPlite 1 Step, concentration reducing total ATP levels by 50% relative to no drug controls
Protocol: At day 3, post seeding cells are treated with ATPlite 1 Step according to the manufacturer's instructions.

SMILES	EC50 (2.2.15 cells)	CC50 at 3 days [1]
CCC1Cc2c(oc3ccccc23)-c2cc(=O)c(C(=O)O)cn21 (stereo not drawn) [Example 1, 6-ethyl-2-oxo-6,7-dihydro-2H-benzofuro[2,3-a]quinolizine-3-carboxylic acid]	0.1 to 1 µM	> 25 µM
O=C(O)c1cn2c(cc1=O)-c1oc3ccccc3c1CC2c1ccccc1 (stereo not drawn) [Example 2, 2-oxo-6-phenyl-6,7-dihydro-2H-benzofuro[2,3-a]quinolizine-3-carboxylic acid]	> 1 µM	> 25 µM
CC(C)(C)[C@@H]1Cc2c(oc3ccccc23)-c2cc(=O)c(C(=O)O)cn21 [Example 3, (S)-6-(tert-butyl)-2-oxo-6,7-dihydro-2H-benzofuro[2,3-a]quinolizine-3-carboxylic acid]	< 0.1 µM	> 25 µM
CC(C)(C)[C@@H]1Cc2c(oc3c(OC(F)F)cccc23)-c2cc(=O)c(C(=O)O)cn21 [Example 4, (S)-6-(tert-butyl)-11-(difluoromethoxy)-2-oxo-6,7-dihydro-2H-benzofuro[2,3-a]quinolizine-3-carboxylic acid]	< 0.1 µM	> 25 µM
CC(C)(C)[C@@H]1Cc2c(oc3cc(-c4ccoc4)ccc23)-c2cc(=O)c(C(=O)O)cn21 [Example 5, (S)-6-(tert-butyl)-10-(furan-3-yl)-2-oxo-6,7-dihydro-2H-benzofuro[2,3-a]quinolizine-3-carboxylic acid]	< 0.1 µM	–
CC(C)(C)[C@@H]1Cc2c(oc3cc(OC(F)F)ccc23)-c2cc(=O)c(C(=O)O)cn21 [Example 6, (S)-6-(tert-butyl)-10-(difluoromethoxy)-2-oxo-6,7-dihydro-2H-benzofuro[2,3-a]quinolizine-3-carboxylic acid]	< 0.1 µM	10 to 25 µM
CC(C)(C)[C@@H]1Cc2c(oc3cc(OC(F)F)ccc23)-c2cc(=O)c(-c3ncn[nH]3)cn21 [Example 7, (S)-6-(tert-butyl)-10-(difluoromethoxy)-3-(1H-1,2,4-triazol-5-yl)-6,7-dihydro-2H-benzofuro[2,3-a]quinolizin-2-one]	< 0.1 µM	> 25 µM
CC(C)(C)[C@@H]1Cc2c(oc3c(OC(F)F)cccc23)-c2cc(=O)c(-c3ncn[nH]3)cn21 [Example 8, (S)-6-(tert-butyl)-11-(difluoromethoxy)-3-(1H-1,2,4-triazol-5-yl)-6,7-dihydro-2H-benzofuro[2,3-a]quinolizin-2-one]	< 0.1 µM	> 25 µM
Cn1ccc(-c2ccc3c4c(oc3c2)-c2cc(=O)c(C(=O)O)cn2[C@H](C(C)(C)C)C4)n1 [Example 9, (S)-6-(tert-butyl)-10-(1-methyl-1H-pyrazol-3-yl)-2-oxo-6,7-dihydro-2H-benzofuro[2,3-a]quinolizine-3-carboxylic acid]	< 0.1 µM	–
Cn1cc(-c2ccc3c4c(oc3c2)-c2cc(=O)c(C(=O)O)cn2[C@H](C(C)(C)C)C4)cn1 [Example 10, (S)-6-(tert-butyl)-10-(1-methyl-1H-pyrazol-4-yl)-2-oxo-6,7-dihydro-2H-benzofuro[2,3-a]quinolizine-3-carboxylic acid]	< 0.1 µM	> 25 µM
Cn1nccc1-c1ccc2c3c(oc2c1)-c1cc(=O)c(C(=O)O)cn1[C@H](C(C)(C)C)C3 [Example 11, (S)-6-(tert-butyl)-10-(1-methyl-1H-pyrazol-5-yl)-2-oxo-6,7-dihydro-2H-benzofuro[2,3-a]quinolizine-3-carboxylic acid]	< 0.1 µM	> 25 µM
CC(C)(C)[C@@H]1Cc2c(oc3cc(C#N)ccc23)-c2cc(=O)c(C(=O)O)cn21 [Example 12, (S)-6-(tert-butyl)-10-cyano-2-oxo-6,7-dihydro-2H-benzofuro[2,3-a]quinolizine-3-carboxylic acid]	< 0.1 µM	> 25 µM
CC(C)(C)[C@@H]1Cc2c(oc3cc(-c4cn[nH]c4)ccc23)-c2cc(=O)c(C(=O)O)cn21 [Example 13, (S)-6-(tert-butyl)-2-oxo-10-(1H-pyrazol-4-yl)-6,7-dihydro-2H-benzofuro[2,3-a]quinolizine-3-carboxylic acid]	< 0.1 µM	> 25 µM
CC(C)(C)[C@@H]1Cc2c(oc3cc(-c4ccn[nH]4)ccc23)-c2cc(=O)c(C(=O)O)cn21 [Example 14, (S)-6-(tert-butyl)-2-oxo-10-(1H-pyrazol-5-yl)-6,7-dihydro-2H-benzofuro[2,3-a]quinolizine-3-carboxylic acid]	< 0.1 µM	> 25 µM
CC(C)(C)[C@@H]1Cc2c(oc3cc(-c4ccco4)ccc23)-c2cc(=O)c(C(=O)O)cn21 [Example 15, (S)-6-(tert-butyl)-10-(furan-2-yl)-2-oxo-6,7-dihydro-2H-benzofuro[2,3-a]quinolizine-3-carboxylic acid]	< 0.1 µM	–
CC(C)(C)[C@@H]1Cc2c(oc3cc(-c4cnco4)ccc23)-c2cc(=O)c(C(=O)O)cn21 [Example 17, (S)-6-(tert-butyl)-10-(oxazol-5-yl)-2-oxo-6,7-dihydro-2H-benzofuro[2,3-a]quinolizine-3-carboxylic acid]	< 0.1 µM	> 25 µM
CC(C)(C)[C@@H]1Cc2c(oc3cc(-c4cccs4)ccc23)-c2cc(=O)c(C(=O)O)cn21 [Example 18, (S)-6-(tert-butyl)-2-oxo-10-(thiophen-2-yl)-6,7-dihydro-2H-benzofuro[2,3-a]quinolizine-3-carboxylic acid]	< 0.1 µM	–
CC(C)(C)[C@@H]1Cc2c(oc3cc(-c4cnsc4)ccc23)-c2cc(=O)c(C(=O)O)cn21 [Example 19, (S)-6-(tert-butyl)-10-(isothiazol-4-yl)-2-oxo-6,7-dihydro-2H-benzofuro[2,3-a]quinolizine-3-carboxylic acid]	< 0.1 µM	–
CC(C)(C)[C@@H]1Cc2c(oc3cc(-c4ccsc4)ccc23)-c2cc(=O)c(C(=O)O)cn21 [Example 20, (S)-6-(tert-butyl)-2-oxo-10-(thiophen-3-yl)-6,7-dihydro-2H-benzofuro[2,3-a]quinolizine-3-carboxylic acid]	< 0.1 µM	–
CC(C)(C)[C@@H]1Cc2c(oc3cc(-c4nccs4)ccc23)-c2cc(=O)c(C(=O)O)cn21 [Example 21, (S)-6-(tert-butyl)-2-oxo-10-(thiazol-2-yl)-6,7-dihydro-2H-benzofuro[2,3-a]quinolizine-3-carboxylic acid]	< 0.1 µM	10 to 25 µM
CC(C)(C)[C@@H]1Cc2c(oc3cc(-c4cscn4)ccc23)-c2cc(=O)c(C(=O)O)cn21 [Example 22, (S)-6-(tert-butyl)-2-oxo-10-(thiazol-4-yl)-6,7-dihydro-2H-benzofuro[2,3-a]quinolizine-3-carboxylic acid]	< 0.1 µM	–
CC(C)(C)[C@@H]1Cc2c(oc3cc(C4CC4)ccc23)-c2cc(=O)c(C(=O)O)cn21 [Example 23, (S)-6-(tert-butyl)-10-cyclopropyl-2-oxo-6,7-dihydro-2H-benzofuro[2,3-a]quinolizine-3-carboxylic acid]	< 0.1 µM	10 to 25 µM
Cc1ccc2c3c(oc2c1)-c1cc(=O)c(C(=O)O)cn1[C@H](C(C)(C)C)C3 [Example 24, (S)-6-(tert-butyl)-10-methyl-2-oxo-6,7-dihydro-2H-benzofuro[2,3-a]quinolizine-3-carboxylic acid]	< 0.1 µM	> 25 µM
CCc1ccc2c3c(oc2c1)-c1cc(=O)c(C(=O)O)cn1[C@H](C(C)(C)C)C3 [Example 25, (S)-6-(tert-butyl)-10-ethyl-2-oxo-6,7-dihydro-2H-benzofuro[2,3-a]quinolizine-3-carboxylic acid]	< 0.1 µM	> 25 µM
CC(C)(C)[C@@H]1Cc2c(oc3c(-c4ccoc4)cccc23)-c2cc(=O)c(C(=O)O)cn21 [Example 26, (S)-6-(tert-butyl)-11-(furan-3-yl)-2-oxo-6,7-dihydro-2H-benzofuro[2,3-a]quinolizine-3-carboxylic acid]	< 0.1 µM	10 to 25 µM
CC(C)(C)[C@@H]1Cc2c(oc3c(N4CCCC4)cccc23)-c2cc(=O)c(C(=O)O)cn21 [Example 40, (S)-6-(tert-butyl)-2-oxo-11-(pyrrolidin-1-yl)-6,7-dihydro-2H-benzofuro[2,3-a]quinolizine-3-carboxylic acid]	< 0.1 µM	–
Cc1cccc2c3c(oc12)-c1cc(=O)c(C(=O)O)cn1[C@H](C(C)(C)C)C3 [Example 44, (S)-6-(tert-butyl)-11-methyl-2-oxo-6,7-dihydro-2H-benzofuro[2,3-a]quinolizine-3-carboxylic acid]	0.1 to 1 µM	–
Cn1ccc(-c2cccc3c4c(oc23)-c2c(F)c(=O)c(C(=O)O)cn2[C@H](C(C)(C)C)C4)n1 [Example 56, (S)-6-(tert-butyl)-1-fluoro-11-(1-methyl-1H-pyrazol-3-yl)-2-oxo-6,7-dihydro-2H-benzofuro[2,3-a]quinolizine-3-carboxylic acid]	< 0.1 µM	–
CC(C)(C)[C@@H]1Cc2c(oc3c(N4CCC(F)(F)C4)cccc23)-c2c(F)c(=O)c(C(=O)O)cn21 [Example 60, (S)-6-(tert-butyl)-11-(3,3-difluoropyrrolidin-1-yl)-1-fluoro-2-oxo-6,7-dihydro-2H-benzofuro[2,3-a]quinolizine-3-carboxylic acid]	< 0.1 µM	–
CC(C)[C@@H]1Cc2c(oc3cc(-c4cccs4)ccc23)-c2cc(=O)c(C(=O)O)cn21 [Example 75, (S)-6-isopropyl-2-oxo-10-(thiophen-2-yl)-6,7-dihydro-2H-benzofuro[2,3-a]quinolizine-3-carboxylic acid]	< 0.1 µM	–
